Measurements: article PMC7173930, “EAT-18 is an essential auxiliary protein interacting with the non-alpha nAChR subunit EAT-2 to form a functional receptor” (PLoS Pathogens, 2020)
Where two headings read alike, the source gives them in different places. One block for each compound: values may come before it.

Experiments:
[1] = target: T1, Cel-EAT-2 and Cel-EAT-18c nAChR (Caenorhabditis elegans, UniProt Q9U298); assay: Two-electrode voltage-clamp of Cel-EAT-2 + Cel-EAT-18c nAChR expressed in Xenopus oocytes; format: cell-based; conditions: for Emax at 100 µM: read-out: current response normalized to the control 100 μM ACh current (Imax)
T1 sequence (Q9U298 22-474): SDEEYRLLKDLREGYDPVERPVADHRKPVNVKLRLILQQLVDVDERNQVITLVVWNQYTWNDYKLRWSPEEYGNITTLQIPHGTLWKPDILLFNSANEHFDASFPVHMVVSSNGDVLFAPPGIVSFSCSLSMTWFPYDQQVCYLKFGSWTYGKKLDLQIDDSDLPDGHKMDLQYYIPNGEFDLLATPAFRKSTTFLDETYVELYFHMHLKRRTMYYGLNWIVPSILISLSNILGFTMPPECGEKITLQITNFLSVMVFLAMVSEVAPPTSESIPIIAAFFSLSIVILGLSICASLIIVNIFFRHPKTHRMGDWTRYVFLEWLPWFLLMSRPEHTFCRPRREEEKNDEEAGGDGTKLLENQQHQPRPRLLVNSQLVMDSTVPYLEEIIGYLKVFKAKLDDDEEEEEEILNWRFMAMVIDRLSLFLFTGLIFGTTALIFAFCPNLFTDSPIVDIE

[2] = test system: nAChRs expressed in the pharynx of A. suum; assay: tissue or blood; format: cell-based; conditions: for % change in membrane conductance (δG) normalized to the ACh δG: normalized to 100 μM ACh (10 s), mean±SEM, n≥4; for Emax: Ascaris suum, read-out: % change in membrane conductance (δG) normalized to the ACh δG; for normalized response (δG) to muscarinic agonists, control ACh = 100%: 100 μM, 10 s application, mean±SE, n=4
Protocol: A. suum pharyngeal dissections and electrophysiology recordings were adapted from Martin [49]. Briefly, pharynx was dissected out from the head region of the worm and mounted on Sylgard (Sigma-Aldrich Inc., USA)—lined in a double jacketed bath chamber maintained at 28°C. The muscle layer surrounding the anterior 3rd of the pharynx was preserved for anchoring. The intestine attached to the posterior end of the pharynx was used for stretching and pinning down. The preparation was continuously perfused with calcium-free Ascaris Perienteric Fluid-Ringer (calcium-free APF-Ringer) composition (mM): NaCl 23, Na-acetate 110, KCl 24, MgCl2 11, glucose 11, and HEPES 5; NaOH or acetic acid was added to adjust the pH to 7.6. […] The rate of localized perfusion was 3.5–4 ml min^−1 through a 20-gauge needle, which was placed directly above the recording region of the pharynx. […] We used 3 M potassium acetate in our micropipettes to get the final resistances of 4–7 MΩ for the voltage sensing and 0.5–1 MΩ for the current injecting electrode for current-clamp recordings. The current-injecting electrode injected hyperpolarizing step currents of −1000 nA for 500 ms at 0.3 Hz.
We constructed the sigmoidal concentration-response plots by fitting the data by nonlinear regression to determine the pEC50 and the maximal response (Rmax). Extra sum of squares F-test was used to test statistical differences between pEC50, slope, and maximal response. The significance levels were set to P<0.05.
In applications containing arecoline and pilocarpine, we used mecamylamine, a nAChR antagonist (30µM) to inhibit nAChRs and to allow only mAChR activation.

Asu-EAT-2 nAChR = Asu-EAT-2 nAChR (Ascaris suum, UniProt F1L9Y6); assay: cell-based; format: cell-based, A. suum; conditions: for Emax: read-out: current response normalized to the control 100 μM ACh current
Sequence of Asu-EAT-2 nAChR (F1L9Y6 entry or part of it): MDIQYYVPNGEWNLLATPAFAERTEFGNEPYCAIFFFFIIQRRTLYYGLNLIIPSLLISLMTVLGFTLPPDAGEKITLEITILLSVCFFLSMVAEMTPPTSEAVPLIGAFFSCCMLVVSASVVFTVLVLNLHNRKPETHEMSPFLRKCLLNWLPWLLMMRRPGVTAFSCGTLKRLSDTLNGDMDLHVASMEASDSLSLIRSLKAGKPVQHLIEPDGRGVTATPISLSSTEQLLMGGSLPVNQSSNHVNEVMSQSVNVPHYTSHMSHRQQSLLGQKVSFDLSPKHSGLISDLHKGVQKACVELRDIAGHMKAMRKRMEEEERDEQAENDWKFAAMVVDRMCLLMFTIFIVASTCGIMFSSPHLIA
Sequence of Asu-EAT-2 nAChR (F1L1D9 entry or part of it, further chain): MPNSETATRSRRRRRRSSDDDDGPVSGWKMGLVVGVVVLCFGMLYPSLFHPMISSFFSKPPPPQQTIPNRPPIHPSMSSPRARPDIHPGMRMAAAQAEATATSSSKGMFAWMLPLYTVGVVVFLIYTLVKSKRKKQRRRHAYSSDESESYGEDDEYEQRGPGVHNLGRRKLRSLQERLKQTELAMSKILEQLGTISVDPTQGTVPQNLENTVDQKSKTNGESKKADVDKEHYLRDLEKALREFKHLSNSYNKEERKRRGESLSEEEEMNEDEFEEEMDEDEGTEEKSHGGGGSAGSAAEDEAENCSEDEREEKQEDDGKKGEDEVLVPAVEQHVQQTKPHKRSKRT

[3] = test system: A. suum muscarinic receptor; design: method as in earlier work; conditions: all used at 100 µM; ref 1 Kimber M.J. et al. Int J Parasitol 39: 1215-1222 (2009); cited from earlier work
[4] = test system: α3β4, α3β2, α4β4 and α4β2 vertebrate nAChRs; conditions: read-out: IC50 of reversible channel block; cited from earlier work
[5] = target: T2, Cel-EAT-2 and Cel-EAT-18c receptor (Cel-EAT-2 nAChR) (Caenorhabditis elegans, UniProt Q9U298); assay: Two-electrode voltage-clamp of oocytes expressing Cel-EAT-2 with Cel-EAT-18c; agonist peak currents normalized to 100 uM ACh and fitted to the Hill equation.; format: cell-based, Xenopus laevis oocytes; conditions: n = 6; read-out: pEC50 (mean±SEM) (converted)
T2 construct: homomeric EAT-2 co-expressed with Cel-EAT-18c in Xenopus laevis oocytes
T2 sequence (Q86DB4 entry or part of it, one chain of several): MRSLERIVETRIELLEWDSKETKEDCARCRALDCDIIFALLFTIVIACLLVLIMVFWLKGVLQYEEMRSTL

[6] = in the presence of mecamylamine 30 μM

Compound: Clc1ccc(C2CC3CCC2N3)cn1 (stereo not shown) [epibatidine]
Emax at 100 µM ([1]; agonist 100 μM, mean±SEM, n≥6): 25 ± 1.5%
% change in membrane conductance (δG) normalized to the ACh δG [2]: 31.0±3.0%
Emax (Asu-EAT-2 nAChR; mean±SEM, n≥5): 77 ± 4.2%

Compound: C[N+]1(C)CCN(c2ccccc2)CC1 [DMPP]
current response normalized to the control 100 μM ACh current (Imax) ([1]; agonist 100 μM, mean±SEM, n≥6): failed to respond
Emax at 100 µM ([1]; agonist 100 μM, mean±SEM, n≥6): 0%
Emax [2]: 12 ± 2.9%
Emax (Asu-EAT-2 nAChR; mean±SEM, n≥5): 6.6 ± 1.9%

Compound: CC[C@@H]1C(=O)OC[C@@H]1Cc1cncn1C [pilocarpine]
normalized response (δG) to muscarinic agonists, control ACh = 100% [2, 6]: 0.7±0.7%
response relative to ACh (rank order series of muscarinic agonists) [3]: 14%

Compound: Cc1ccc(C[N+](C)(C)C)o1 [MFI, 5-methylfurmethiodide]
normalized response (δG) to muscarinic agonists, control ACh = 100% [2]: 4.0±0.6%

Compound: CN1[C@@H]2CC[C@H]1C[C@@H](OC(=O)C(CO)c1ccccc1)C2 (stereo partly shown) [atropine]
IC50 [4]: 4 to 10 µM

Compound: CN1C(=O)[C@]23C[C@H]4C(C)(C)[C@]5(CNc6c5ccc5c6OC=CC(C)(C)O5)C[C@@]41CN2CC[C@@]3(C)O [derquantel]
Imax of ACh concentration-response in the presence of antagonist ([1]; antagonist 10 μM): 68.4±2.1%
% inhibition of 100 μM ACh membrane conductance (δG) [2]: 30.6±7.0%
mean % inhibition of ACh (100 μM) mediated currents (Asu-EAT-2 nAChR): 72.0±3.4%

Compound: COC(=O)C1=CCCN(C)C1 [arecoline]
normalized response (δG) to muscarinic agonists, control ACh = 100% [2, 6]: 2.6±2.0%
response relative to ACh (rank order series of muscarinic agonists) [3]: 76%

Compound: c1cncc([C@@H]2CCCN2)c1 [nornicotine]
Emax at 100 µM ([1]; agonist 100 μM, mean±SEM, n≥6): 0%

Compound: CCCC(=O)OCC[N+](C)(C)C [butyrylcholine]
current response normalized to the control 100 μM ACh current (Imax) ([1]; agonist 100 μM, mean±SEM, n≥6): 50.0±5.0%
pEC50 ([1]; agonist concentration-response, 100 μM ACh as internal standard, mean±SEM): 3.9±0.1
Hill slope (nH) ([1]; agonist concentration-response, mean±SEM): 2.8±1.8
EC50 [5]: 126 µM

Compound: α-cotinine
current response normalized to the control 100 μM ACh current (Imax) ([1]; agonist 100 μM, mean±SEM, n≥6): 0.0±0.0%

Compound: C[N+](C)(C)CCO [choline]
Emax [2]: 0%
Emax (Asu-EAT-2 nAChR): 0%

Emax at 100 µM ([1]; agonist 100 μM, mean±SEM, n≥6): 0%
Compound: CN1[C@@H](CC(=O)c2ccccc2)CCC[C@H]1C[C@H](O)c1ccccc1 [lobeline]

Compound: C/C(=N/c1ccc(/N=C/c2ccc(/C=N/c3ccc(/N=C(/C)N(C)C)cc3)cc2)cc1)N(C)C [tribendimidine]
% change in membrane conductance (δG) normalized to the ACh δG [2]: 0.0±0.0%

Compound: O=c1cccc2n1C[C@@H]1CNC[C@H]2C1 [cytisine]
Emax at 100 µM [1]: 0%
Emax [2]: 71.2 ± 5%
Emax (Asu-EAT-2 nAChR): 81 ± 5.2%

Compound: Cc1ccsc1/C=C/C1=NCCCN1C [morantel]
current response normalized to the control 100 μM ACh current (Imax) ([1]; agonist 100 μM, mean±SEM, n≥6): did not activate the receptor
Emax [2]: 0.3 ± 0.3%
Emax (Asu-EAT-2 nAChR; mean±SEM, n≥5): 0%

Compound: CN1CCCN=C1/C=C/c1cccs1 [pyrantel]
Emax at 100 µM ([1]; agonist 100 μM, mean±SEM, n≥6): 0%
Emax [2]: 0%
current response normalized to the control 100 μM ACh current (Asu-EAT-2 nAChR): failed to activate the receptor
Emax (Asu-EAT-2 nAChR): 0%

Compound: C[N+](C)(C)CCCCCC[N+](C)(C)C [hexamethonium]
% inhibition of 100 μM ACh membrane conductance (δG) [2]: 26.8±1.9%
